In PubChem BioAssay (NCI):
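Cells were grown in 96-well plates and exposed to each compound for 48 hours at five concentrations; endpoints were interpolated linearly between bracketing concentrations, or set to the highest concentration if not reached. Definition used: TGI = concentration required for complete inhibition of growth.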

What was measured:
Experiment in all cases: NCI tumour cell line growth inhibition, 48 h
[1] = tested on: A498 renal
[2] = tested on: A549 NSCLC
[3] = tested on: CCRF-CEM leukemia
[4] = tested on: COLO 205 colon
[5] = tested on: DLD-1 colon
[6] = tested on: DMS 114 small cell lung
[7] = tested on: DMS 273 small cell lung
[8] = tested on: EKVX NSCLC
[9] = tested on: HCC-2998 colon
[10] = tested on: HCT-116 colon
[11] = tested on: HCT-15 colon
[12] = tested on: HL-60(TB) leukemia
[13] = tested on: HOP-18 NSCLC
[14] = tested on: HOP-62 NSCLC
[15] = tested on: HOP-92 NSCLC
[16] = tested on: HT29 colon
[17] = tested on: IGROV1 ovarian
[18] = tested on: K-562 leukemia
[19] = tested on: KM12 colon
[20] = tested on: KM20L2 colon
[21] = tested on: LOX IMVI melanoma
[22] = tested on: MALME-3M melanoma
[23] = tested on: MCF7 breast
[24] = tested on: MOLT-4 leukemia
[25] = tested on: NCI-H226 lung
[26] = tested on: NCI-H23 lung
[27] = tested on: NCI-H460 lung
[28] = tested on: NCI-H522 lung
[29] = tested on: NCI/ADR-RES ovarian
[30] = tested on: OVCAR-3 ovarian
[31] = tested on: OVCAR-4 ovarian
[32] = tested on: OVCAR-5 ovarian
[33] = tested on: OVCAR-8 ovarian
[34] = tested on: P388 leukemia
[35] = tested on: P388/ADR leukemia
[36] = tested on: RPMI-8226 leukemia
[37] = tested on: RXF 393 renal
[38] = tested on: SF-268 CNS
[39] = tested on: SF-295 CNS
[40] = tested on: SF-539 CNS
[41] = tested on: SK-MEL-2 melanoma
[42] = tested on: SK-MEL-28 melanoma
[43] = tested on: SK-MEL-5 melanoma
[44] = tested on: SK-OV-3 ovarian
[45] = tested on: SN12C renal
[46] = tested on: SN12K1 renal
[47] = tested on: SNB-19 CNS
[48] = tested on: SNB-75 CNS
[49] = tested on: SNB-78 CNS
[50] = tested on: SW-620 colon
[51] = tested on: U251 CNS
[52] = tested on: UACC-257 melanoma
[53] = tested on: UACC-62 melanoma
[54] = tested on: UO-31 renal
[55] = tested on: XF 498 CNS
[56] = tested on: 786-0 renal
[57] = tested on: ACHN renal
[58] = tested on: CAKI-1 renal
[59] = tested on: LXFL 529 NSCLC
[60] = tested on: M14 melanoma
[61] = tested on: M19-MEL melanoma
[62] = tested on: RXF-631 renal
[63] = tested on: SR leukemia
[64] = tested on: TK-10 renal

With O=C(O)CCC(NC(=O)c1ccc(Nc2cnc3cc(C(F)(F)F)ccc3n2)cc1)C(=O)O (centres undefined) the TGI [1] was > 100 µM, the TGI [2] was > 100 µM and the TGI [3] was > 100 µM. For the same molecule, the TGI [4] was > 100 µM, the TGI [5] was > 100 µM and the TGI [6] was > 100 µM. For the same molecule, the TGI [7] was > 100 µM, the TGI [8] was > 100 µM and the TGI [9] was > 100 µM. For the same molecule, the TGI [10] was > 100 µM, the TGI [11] was > 100 µM and the TGI [12] was > 100 µM. For the same molecule, the TGI [13] was > 100 µM, the TGI [14] was > 100 µM and the TGI [15] was > 100 µM. The TGI [16] was > 100 µM, the TGI [17] was > 100 µM and the TGI [18] was > 100 µM. For the same molecule, the TGI [19] was > 100 µM, the TGI [20] was > 100 µM and the TGI [21] was > 100 µM. For the same molecule, the TGI [22] was > 100 µM, the TGI [23] was > 100 µM and the TGI [24] was > 100 µM. For the same molecule, the TGI [25] was > 100 µM, the TGI [26] was > 100 µM and the TGI [27] was > 100 µM. The TGI [28] was > 100 µM, the TGI [29] was > 100 µM and the TGI [30] was > 100 µM. The TGI [31] was > 100 µM, the TGI [32] was > 100 µM and the TGI [33] was > 100 µM. For the same molecule, the TGI [34] was > 100 µM, the TGI [35] was > 100 µM and the TGI [36] was > 100 µM. The TGI [37] was > 100 µM, the TGI [38] was > 100 µM and the TGI [39] was > 100 µM. For the same molecule, the TGI [40] was > 100 µM, the TGI [41] was > 100 µM and the TGI [42] was > 100 µM. The TGI [43] was > 100 µM, the TGI [44] was > 100 µM and the TGI [45] was > 100 µM. The TGI [46] was > 100 µM, the TGI [47] was > 100 µM and the TGI [48] was > 100 µM. The TGI [49] was > 100 µM, the TGI [50] was > 100 µM and the TGI [51] was > 100 µM. The TGI [52] was > 100 µM, the TGI [53] was > 100 µM and the TGI [54] was > 100 µM. The TGI [55] was > 100 µM.

Cc1cccc(NC(=O)C(=O)C(C2OC(=O)c3ccccc32)[N+](=O)[O-])c1C (centres undefined) was tested, and the TGI [56] was 21.8 µM, the TGI [1] was 32 µM and the TGI [2] was 35.4 µM. The TGI [57] was 22.9 µM, the TGI [58] was 24.2 µM and the TGI [3] was 20.4 µM. It also gave a TGI [4] of 29.1 µM, a TGI [5] of 23.1 µM and a TGI [6] of 10.3 µM. For the same molecule, the TGI [7] was 10.3 µM, the TGI [8] was 46.3 µM and the TGI [9] was 27 µM. It also gave a TGI [10] of 21.3 µM, a TGI [11] of 19.7 µM and a TGI [12] of 6.94 µM. The TGI [13] was 22.3 µM, the TGI [14] was 31.1 µM and the TGI [16] was 35.1 µM. For the same molecule, the TGI [17] was 27.7 µM, the TGI [18] was 39.7 µM and the TGI [19] was 26.9 µM. It also gave a TGI [20] of 42.7 µM, a TGI [21] of 6.26 µM and a TGI [59] of 20.3 µM. The TGI [60] was 26.7 µM, the TGI [61] was 3.91 µM and the TGI [22] was 10.5 µM. For the same molecule, the TGI [24] was > 100 µM, the TGI [25] was 26.4 µM and the TGI [26] was 18.9 µM. For the same molecule, the TGI [27] was 18.7 µM, the TGI [28] was 4.2 µM and the TGI [30] was 5.11 µM. The TGI [31] was 25.8 µM, the TGI [32] was 33.3 µM and the TGI [33] was 26.8 µM. It also gave a TGI [37] of 20.7 µM, a TGI [62] of 33.7 µM and a TGI [38] of 24.7 µM. It also gave a TGI [39] of 28.1 µM, a TGI [40] of 34.9 µM and a TGI [41] of 17.2 µM. The TGI [42] was 25.1 µM, the TGI [43] was 19.2 µM and the TGI [44] was 26.7 µM. For the same molecule, the TGI [45] was 18.9 µM, the TGI [47] was 35.1 µM and the TGI [48] was 19.7 µM. For the same molecule, the TGI [49] was > 100 µM, the TGI [63] was > 100 µM and the TGI [50] was 20.9 µM. It also gave a TGI [64] of 32 µM, a TGI [51] of 12.6 µM and a TGI [52] of 17.6 µM. The TGI [53] was 23.1 µM, the TGI [54] was 21.4 µM and the TGI [55] was 18.7 µM.

With CC(C)c1oc(=O)cc2c1C(O)C1OC(=O)C3(C)C(O)C4OC4C2(C)C13 (centres undefined) the TGI [1] was 1.41 µM, the TGI [2] was 16.5 µM and the TGI [58] was 9.39 µM. For the same molecule, the TGI [3] was 3.07 µM, the TGI [4] was 4.18 µM and the TGI [5] was 8.57 µM. The TGI [6] was 6.31 µM, the TGI [7] was 5.93 µM and the TGI [8] was 9.84 µM. It also gave a TGI [9] of 7.92 µM, a TGI [10] of 9.99 µM and a TGI [11] of 41.6 µM. The TGI [12] was 1.22 µM, the TGI [13] was 24.3 µM and the TGI [14] was 9.27 µM. It also gave a TGI [15] of 2.38 µM, a TGI [16] of 11.1 µM and a TGI [17] of 20.6 µM. For the same molecule, the TGI [18] was 6.63 µM, the TGI [19] was 24.9 µM and the TGI [20] was 12.8 µM. The TGI [21] was 5.77 µM, the TGI [61] was 7.75 µM and the TGI [22] was 10 µM. The TGI [23] was 5.23 µM, the TGI [24] was 2.13 µM and the TGI [25] was 19.3 µM. The TGI [26] was 7.63 µM, the TGI [27] was 9.73 µM and the TGI [28] was 5.21 µM. The TGI [29] was 96.9 µM, the TGI [30] was 6.42 µM and the TGI [31] was 12.4 µM. The TGI [32] was 27.2 µM, the TGI [33] was 10.6 µM and the TGI [34] was 1.23 µM. For the same molecule, the TGI [35] was 16.6 µM, the TGI [36] was 4.1 µM and the TGI [37] was 6.8 µM. For the same molecule, the TGI [38] was 25 µM, the TGI [39] was 12.8 µM and the TGI [40] was 4.19 µM. It also gave a TGI [41] of 7.71 µM, a TGI [42] of 12.7 µM and a TGI [43] of 1.77 µM. For the same molecule, the TGI [44] was 20.3 µM, the TGI [45] was 7.05 µM and the TGI [46] was 9.37 µM. For the same molecule, the TGI [47] was 4.41 µM, the TGI [48] was 7.92 µM and the TGI [49] was 52 µM. It also gave a TGI [50] of 19 µM, a TGI [51] of 25 µM and a TGI [52] of 10.8 µM. It also gave a TGI [53] of 7.44 µM, a TGI [54] of 15.5 µM and a TGI [55] of 1.95 µM.
